Data as given in paper PMC7047876, “Potent Chimeric Antimicrobial Derivatives of the Medicago truncatula NCR247 Symbiotic Peptide” (Frontiers in Microbiology, 2020).
≈ marks a conversion by molar mass, not a printed value. Entries after “also recorded” stand apart in the source; their conditions may differ. Like-named read-outs stand apart in the source and are kept apart here. Peptide text beside a SMILES is read from it.

What was measured:
Format in all cases: cell-based
[1] = tested on: Acinetobacter baumannii (ATCC 17978); assay: microbe, parasite or virus in culture; details: 3 h treatment in PPB (20 mM potassium-phosphate buffer, pH 7.4), 37°C, then plating on LB agar, read-out: Minimal bactericidal concentration (MBC) A. b.
Text: (§1) The pathogenic bacterial strains obtained from the ATCC (United States) and NCTC (National Collection of Type Cultures – England) were the Gram-positive: Enterococcus faecalis (ATCC 29212), Staphylococcus aureus (HNCMO112011), Listeria monocytogenes (ATCC 19111) and the Gram-negative: Pseudomonas aeruginosa (ATCC 27853), Escherichia coli (ATCC 8739), Salmonella enterica (ATCC 13076), Klebsiella pneumoniae (NCTC 13440), Acinetobacter baumannii (ATCC 17978).
(§2) Overnight bacterial cultures grown in LB were diluted and grown to OD600 = 0.2–0.6 at 37°C with shaking. After harvesting and washing bacteria in PPB, the suspensions were adjusted to OD600 = 0.1 corresponding to ∼10^7 bacteria/mL. Antimicrobial activity of the peptides and the antibiotics was determined in PPB in 96 well microplates using 10 μL bacterial suspension and 90 μL of the 2-fold serial dilutions of peptides or antibiotics. Peptides were tested from 25 μM to 0.125 μM whereas the antibiotics; carbenicillin (Cb) from Duchefa Biochemie (Prod.No. C0109.0025) and levofloxacin (Lvx) from Sigma-Aldrich (Prod.No. 28266-10MG-F) from […] to 0.1 μM. The microplates were incubated for 3 h at 37°C with 250 rpm shaking and then 5 μl from each sample was placed on LB agar and the growth of bacteria was monitored after overnight incubation at 37°C. The lowest concentration of the antimicrobial agents, which completely eliminated viable bacteria was the minimal bactericidal concentration (MBC).

[2] = tested on: Enterococcus faecalis (ATCC 29212); assay: microbe, parasite or virus in culture; details: 3 h treatment in PPB (20 mM potassium-phosphate buffer, pH 7.4), 37°C, then plating on LB agar, read-out: Minimal bactericidal concentration (MBC) E. f.
Text: as §1, §2

[3] = tested on: Escherichia coli (ATCC 8739); assay: microbe, parasite or virus in culture; details: 3 h treatment in PPB (20 mM potassium-phosphate buffer, pH 7.4), 37°C, then plating on LB agar, read-out: Minimal bactericidal concentration (MBC) E. c.
Text: as §1, §2

[4] = tested on: Klebsiella pneumoniae (NCTC 13440); assay: microbe, parasite or virus in culture; details: 3 h treatment in PPB (20 mM potassium-phosphate buffer, pH 7.4), 37°C, then plating on LB agar, read-out: Minimal bactericidal concentration (MBC) K. p.
Text: as §1, §2

[5] = tested on: Listeria monocytogenes (ATCC 19111); assay: microbe, parasite or virus in culture; details: 3 h treatment in PPB (20 mM potassium-phosphate buffer, pH 7.4), 37°C, then plating on LB agar, read-out: Minimal bactericidal concentration (MBC) L. m.
Text: as §1, §2

[6] = tested on: Pseudomonas aeruginosa (ATCC 27853); assay: microbe, parasite or virus in culture; details: 3 h treatment in PPB (20 mM potassium-phosphate buffer, pH 7.4), 37°C, then plating on LB agar, read-out: Minimal bactericidal concentration (MBC) P. a.
Text: as §1, §2

[7] = tested on: Salmonella enterica (ATCC 13076); assay: microbe, parasite or virus in culture; details: 3 h treatment in PPB (20 mM potassium-phosphate buffer, pH 7.4), 37°C, then plating on LB agar, read-out: Minimal bactericidal concentration (MBC) S. e.
Text: as §1, §2

[8] = tested on: Staphylococcus aureus (HNCMO112011); assay: microbe, parasite or virus in culture; details: 3 h treatment in PPB (20 mM potassium-phosphate buffer, pH 7.4), 37°C, then plating on LB agar, read-out: Minimal bactericidal concentration (MBC) S. a.
Text: as §1, §2

[9] = tested on: ESKAPE bacteria, L. monocytogenes and S. enterica; assay: Antimicrobial activity in PPB, summarised over the tested bacteria; details: 3 h in PPB; carbenicillin range excludes L. monocytogenes; peptide G range excludes E. faecalis
Text: as §1, §2

[10] = tested on: human melanoma A375 cells; assay: XTT cell proliferation (cytotoxicity) assay; details: 72 h treatment, OD450, three biological repeats
Method: The cytotoxicity of peptides X1-NCR247C and NCR247C-X2 was determined against the human melanoma A375 cells with XTT cell proliferation assay kit (PanReac Applichem) and a benchtop microplate reader (Multiskan RC, Thermo Labsystems) according to the manufacturers’ instructions. A375 human melanoma cell line was obtained from ATCC and maintained in DMEM (Lonza) supplemented by 10% FBS (Euroclone) in a humidified incubator at 37°C and 5% CO2. A375 cells were seeded to 96-well plates (4,000 cells/well) and treated with the peptides for 72 h. Cells without peptides served as negative control and the blank sample was the medium. Reduction of the tetrazolium salt XTT by the viable cells to the orange colored compounds of formazan was measured at OD450. The XTT assay was performed in three biological repeats.

[11] = tested on: Acinetobacter baumannii; details: MHB
Text: as §1
(§3) Ca^2+ and Mg^2+ can inhibit the antimicrobial activity of cationic peptides, therefore the MBC and MIC values were also determined in MHB, which unlike PPB contains divalent cations and allows growth of bacteria. Bacteria were grown and prepared similarly except that bacteria were resuspended in MHB. 10 μl of bacteria OD600 = 0.1, supplemented with 45 μl MHB and 45 μl of 2-fold dilution series of peptides, were cultivated for 3 and 20 h at 37°C with shaking. Optical density of each sample was measured (Hidex Sense Microplate Reader with Plate Reader Software version 5064) and 5 μl was placed on LB agar plates after 3 and 20 h treatment. The minimal inhibitory concentration (MIC) corresponded to the lowest concentration, which inhibited growth.

[12] = tested on: Escherichia coli; details: MHB
Text: as §1, §3

[13] = tested on: Staphylococcus aureus; details: MHB
Text: as §1, §3

[14] = 3 h treatment, 37°C (panel assigned)
[15] = 20 h cultivation, 37°C, optical density (panel assigned)
[16] = 20 h treatment, 37°C (panel assigned)

CC1(C)S[C@@H]2[C@H](NC(=O)C(C(=O)O)c3ccccc3)C(=O)N2[C@H]1C(=O)O (stereo partly drawn) [Cb, carbenicillin, reference compound]
MBC ([1]; Acinetobacter baumannii, ATCC17978): 5120 µM (≈ 1940 µg/mL)
MBC ([2]; Enterococcus faecalis, ATCC29212): 5120 µM (≈ 1940 µg/mL)
MBC ([3]; Escherichia coli, ATCC8739): 1280 µM (≈ 484 µg/mL)
MBC ([4]; Klebsiella pneumoniae, NCTC13440): > 10200 µM
MBC ([5]; Listeria monocytogenes, ATCC19111): 80 µM (≈ 30.3 µg/mL)
MBC ([6]; Pseudomonas aeruginosa, ATCC27853): 10200 µM (≈ 3870 µg/mL)
MBC ([7]; Salmonella enterica, ATCC13076): 640 µM (≈ 242 µg/mL)
MBC ([8]; Staphylococcus aureus): 640 µM (≈ 242 µg/mL)
MBC, range over the tested bacteria as summarised in the text [9]: 640 to 10240 µM

CC[C@H](C)[C@H](NC(=O)[C@H](CCCCN)NC(=O)[C@H](CCCCN)NC(=O)[C@H](C)NC(=O)[C@H](CC(C)C)NC(=O)[C@H](C)NC(=O)[C@H](C)NC(=O)[C@H](CC(C)C)NC(=O)[C@H](C)NC(=O)[C@H](CCCCN)NC(=O)[C@H](CCCNC(=N)N)NC(=O)[C@H](CCCNC(=N)N)NC(=O)[C@H](CCCNC(=N)N)NC(=O)[C@H](CS)NC(=O)[C@H](Cc1ccc(O)cc1)NC(=O)[C@H](CC(C)C)NC(=O)[C@@H]1CCCN1C(=O)[C@H](CCCNC(=N)N)NC(=O)[C@H](CCCNC(=N)N)NC(=O)[C@H](CS)NC(=O)[C@H](CCC(N)=O)NC(=O)[C@@H](N)CCC(N)=O)C(=O)N[C@@H](CC(C)C)C(N)=O [F, NCR247C-X2] (H-QQCRRPLYCRRRKALAALAKKIL-NH2; N-terminus assumed)
Cytotoxicity / viability of A375 cells [10]: no cytotoxicity up to 12.5 μM; also recorded: slight decrease of the viable cell number was observed at 25 μM

CC[C@H](C)[C@H](NC(=O)[C@H](CCCCN)NC(=O)[C@H](CCCCN)NC(=O)[C@H](C)NC(=O)[C@H](CC(C)C)NC(=O)[C@H](C)NC(=O)[C@H](C)NC(=O)[C@H](CC(C)C)NC(=O)[C@H](C)NC(=O)[C@@H](N)CCCCN)C(=O)N[C@@H](CC(C)C)C(N)=O [I, X2] (H-KALAALAKKIL-NH2)
MBC [1]: 25 µM (≈ 28.5 µg/mL)
MBC [2]: >25 µM
MBC [3]: >25 µM
MBC [4]: >25 µM
MBC [5]: 25 µM (≈ 28.5 µg/mL)
MBC [6]: 6.3 µM (≈ 7.17 µg/mL)
MBC [7]: >25 µM
MBC [8]: 25 µM (≈ 28.5 µg/mL)
MBC in Mueller Hinton Broth, panel (A), A. b. [11, 14]: > 25 µM
MIC in Mueller Hinton Broth, panel (C), A. b. [11, 15]: 25 µM (≈ 28.5 µg/mL)
MBC in Mueller Hinton Broth, panel (B), A. b. [11, 16]: >25 µM
MBC in Mueller Hinton Broth, panel (A), E. c. [12, 14]: > 25 µM
MIC in Mueller Hinton Broth, panel (C), E. c. [12, 15]: >25 µM
MBC in Mueller Hinton Broth, panel (B), E. c. [12, 16]: >25 µM
MBC in Mueller Hinton Broth, panel (A), S. a. [13, 14]: > 25 µM
MIC in Mueller Hinton Broth, panel (C), S. a. [13, 15]: >25 µM
MBC in Mueller Hinton Broth, panel (B), S. a. [13, 16]: >25 µM
